Measured values as given in publication PMC8802628, “Selective activation of PFKL suppresses the phagocytic oxidative burst” (Cell, 2021).

Target: T1, PFKL (K315R, V545L, and V582M), PFKL3Mut (Homo sapiens, UniProt P17858, K315R/V545L/V582M)
T1 construct: made in house; host or cells: Sf9 insect cells (baculovirus)
T1 sequence (P17858 1-780 K315R/V545L/V582M): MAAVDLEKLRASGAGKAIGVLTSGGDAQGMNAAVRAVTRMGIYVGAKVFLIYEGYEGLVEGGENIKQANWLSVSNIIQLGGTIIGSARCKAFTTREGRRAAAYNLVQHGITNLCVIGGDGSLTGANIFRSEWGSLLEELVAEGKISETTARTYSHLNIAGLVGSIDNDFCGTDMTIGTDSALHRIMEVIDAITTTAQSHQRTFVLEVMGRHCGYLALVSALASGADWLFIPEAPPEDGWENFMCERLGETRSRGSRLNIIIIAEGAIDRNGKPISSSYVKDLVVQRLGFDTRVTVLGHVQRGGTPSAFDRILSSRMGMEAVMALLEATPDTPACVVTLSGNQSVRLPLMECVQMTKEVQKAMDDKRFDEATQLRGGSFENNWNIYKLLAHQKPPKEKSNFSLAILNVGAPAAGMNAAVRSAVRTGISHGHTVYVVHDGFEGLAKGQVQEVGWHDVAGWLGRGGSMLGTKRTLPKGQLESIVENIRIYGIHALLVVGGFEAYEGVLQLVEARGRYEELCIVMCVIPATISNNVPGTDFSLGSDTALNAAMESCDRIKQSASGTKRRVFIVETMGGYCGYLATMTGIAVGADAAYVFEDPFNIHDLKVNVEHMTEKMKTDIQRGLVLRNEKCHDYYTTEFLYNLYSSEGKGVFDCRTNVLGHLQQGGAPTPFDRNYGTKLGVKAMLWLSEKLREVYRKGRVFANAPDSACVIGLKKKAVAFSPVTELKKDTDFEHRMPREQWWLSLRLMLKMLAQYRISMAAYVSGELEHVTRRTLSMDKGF
Test: Recombinant PFKL3Mut activity assay
Format: biochemical
Conditions: for activation of PFKL3Mut: 3.1 mM ATP, 1.5 mM F6P
Excerpt: Recombinant N-terminal His-tagged human PFKL (NP_002617), PFKM (NP_000280), and PFKP (NM_002627.4) were generated as described ([Webb et al., 2015], [2017]). Point mutants of PFK1 were generated using the QuikChange Lightning kit (Aligent).
His-tagged PFK1 was expressed and purified as described with slight modifications ([Webb et al., 2015], [2017]). Briefly, baculovirus was generated using the Bac-to-Bac Expression system (Invitrogen). PFK1 was expressed in 2-5 × 10^6 sf9 cells at a multiplicity of infection of two for 48 h. Cells were lysed in 20 mM HEPES, pH 7.5, 80 mM potassium phosphate, 1 mM 2-mercapentoethanol, 10% glycerol, 10 mM imidazole, and EDTA-free Protease Inhibitor Cocktail (Abcam) with a Dounce homogenizer. The soluble lysate was incubated with HisPur cobalt resin (ThermoFisher Scientific). The resin was washed with 5 bead volumes lysis buffer, 10 bead volumes lysis buffer containing 2 M NaCl, and 5 further bead volumes lysis buffer. PFK1 was eluted in lysis buffer containing 100 mM imidazole. Fractions containing protein were pooled, passed over a desalting column equilibrated in freezing buffer [20 mM HEPES pH 7.5, 1 mM DTT, 500 μM ammonium sulfate, 5% glycerol, 1 mM ATP, and 100 μM EDTA] and concentrated using an Amicon Ultracel-30K Centrifugal Filter Unit (MilliporeSigma). Protein was quantified using a Bradford Protein Assay kit (ThermoFisher Scientific), and aliquotes frozen in liquid nitrogen for storage at −80°C.
PFK1 activity was determined using the rate of FBP production via an auxiliary enzyme assay adapted to a 96-well format ([Brüser et al., 2012]; [Webb et al., 2015]). The auxiliary enzymes aldolase, triosephosphate isomerase, and glycerol phosphate dehydrogenase were purchased from MilliporeSigma as ammonium sulfate slurries and desalted using an Amicon Ultracel-10K Centrifugal Filter Unit. For assays containing FBP, the rate of ADP production was determined using the auxiliary enzymes pyruvate kinase (PK) and lactate dehydrogenase (LDH) (MilliporeSigma) in a buffer containing 250 μM phosphoenolpyruvic acid, […] NADH, 50 mM HEPES pH 7.5, 100 mM KCl, 1 mM DTT, and effector concentrations as described in the text. The temperature was equilibrated to 25°C for 5 min before initiating the reaction 10 mM MgCl2. Absorbance at 340 nm was measured using a Varioskan LUX Multimode microplate reader (ThermoFisher). Kinetic parameters were generated by nonlinear regression analysis using Prism (GraphPad Software) and are the mean of a minimum of three measurements from two independent preparations of protein. One unit of activity was defined as the amount of enzyme that catalyzed the formation of 1 μmol of fructose 1,6-bisphosphate per min at 25°C. Assays for PFKM were performed at pH 7.0 due to the pH-dependence of ATP inhibition ([Trivedi and Danforth, 1966]).

SMILES | Vmax,F6P (PFKL3Mut, pH 7.5, 225 μM ATP) | hF6P (Hill coefficient) (PFKL3Mut, pH 7.5, 225 μM ATP) | activation of PFKL3Mut (at 200 nM) | activation of PFKL3Mut (at 1 μM)
O=C(CO)[C@@H](O)[C@H](O)[C@H](O)COP(=O)(O)O [F6P, fructose 6-phosphate] | 17.36 ± 0.87 micromoles FBP per minute per milligram PFK1 | 3.07 ± 0.87 | – | –
CC(=O)Nc1ccc2c(c1)OCc1cc(-c3ccccc3C#CCCCO)nn1C2 [NA-11] | – | – | no activation observed | only partial activation observed
